According to US6680326B2, “Polycyclic compounds” (Hoffmann-La Roche Inc., priority 2001, dated 2004):
Converted amounts (≈) assume the structure as drawn.

Tested on: HCT116 cell line (colorectal cancer)
Test: Anti-proliferative activity assay (WST-8, 4 days)
Format: cell-based
Conditions: Homo sapiens, HCT-116, 96 h; in vitro growth of HCT116 cells, 4 days incubation, WST-8 readout
Procedure: A single suspension of tumor cells was inoculated to the serially diluted 96-well microtestplate. Then the testplate was incubated in the 5% CO2 ambience at 37° C. for 4 days (2-3×10^3 cells/well). The degree of cell growth in a monolayer was measured by using WST-8 (Dojindo, Japan). IC50 values of the polycyclic compounds concerned against tumor cells were calculated as the concentration of drug yielding 50% OD of the control growth. The IC50 value measures the drug concentration for 50% inhibition of the growth of tumor cells in vitro as compared to the control.
The anti-tumor activity of polycyclic compounds of the formula [I] against in vitro growth of HCT116 cell line (colorectal cancer) is summarized in Table 1.

| Structure (SMILES) | IC50 |
| --- | --- |
| Cc1c(O)ccc2c3c(c(NCCN(C)C)nc12)C(=O)c1ccncc1-3 [Example 45, 6-(2-dimethylamino-ethylamino)-3-hydroxy-4-methyl-5,10-diaza-benzo[c]fluoren-7-one] | 3.9 ng/mL (≈ 0.0112 µM) |
| CN(C)CCNc1nc2cc(O)ccc2c2c1C(=O)c1ccccc1-2 [Reference compound, 6-(2-dimethylamino-ethylamino)-3-hydroxy-7H-indeno[2,1-c]quinolin-7-one, reference compound] | 12 ng/mL (≈ 0.036 µM) |

Further lines, results first:

| IC50 | Structure (SMILES) |
| --- | --- |
| 0.35 ng/mL (≈ 0.00105 µM) | CN(C)CCNc1nc2cc(O)ccc2c2c1C(=O)c1cnccc1-2 [Example 41, 6-(2-dimethylamino-ethylamino)-3-hydroxy-5,9-diaza-benzo[c]fluoren-7-one] |
| 3.9 ng/mL (≈ 0.0112 µM) | Cc1cc2c(cn1)-c1c(c(NCCN(C)C)nc3cc(O)ccc13)C2=O [Example 47, 6-(2-dimethylamino-ethylamino)-3-hydroxy-9-methyl-5,10-diaza-benzo[c]fluoren-7-one] |
| 2.2 ng/mL (≈ 0.00631 µM) | Cc1c(O)ccc2c3c(c(NCCN(C)C)nc12)C(=O)c1cnccc1-3 [Example 46, 6-(2-dimethylamino-ethylamino)-3-hydroxy-4-methyl-5,9-diaza-benzo[c]fluoren-7-one] |
